Source: patent US7129272B2, “Apoptosis inhibitor” (Sucampo AG, priority 2000, dated 2006)

System: retina
Test: Light-induced retinal apoptosis in rats under continuous light exposure, TUNEL staining
Format: in vivo, SD strain rats
Conditions: SD rats exposed to 1000 lux for 4 days; 10 μg/kg subcutaneously three times a day for 4 days; TUNEL-positive cells to total cells per 200 μm of retina; n=5; control 9.3 ± 0.8; p < 0.01
Protocol: (1) Breeding Condition and Administration Method SD strain rats (male, 11 weeks old) were continuously exposed to 1000 lux of light for 4 days. During the exposure of light, the test group animals were administered subcutaneously with a composition comprising 2-decarboxy-2-(2-carboxyethyl)-13,14-dihydro-15-keto-16,16-difluoro-20-ethyl-PGE, isopropyl ester of the following formula (IV) at the amount of 10 μg/kg of the active ingredient per single administration three times a day, for 4 days. The control group animals were administrated subcutaneously the same volume of the vehicle. [drawing 7] (2) Preparation and Staining After the continuous light exposure was finished, animals of test and control groups were sacrificed by excessive etherization and both eyes of each animal were removed. The eyes were immediately fixed in a 2% paraformaldehyde and 2.5% glutaraldehyde solution in phosphate buffer, dehydrated with alcohol, and then embedded in paraffin. Thus fixed eyes were sliced parallel to the meridian of eye to provide thin retinal preparations each comprises optic disc. The obtained slices were subjected to tunnel staining (Apoptag® Intergen Company). (3) Estimation Total cell number and the number of tunnel-positive cells per 200 μm of the retina were counted and the ratio of the TUNEL-positive cells to the total cell number was determined. […]

Structure (SMILES): CCCCCCC(F)(F)C(=O)CC[C@H]1[C@H](O)CC(=O)[C@@H]1CCCCCCCCC(=O)OC(C)C [formula (IV), 2-decarboxy-2-(2-carboxyethyl)-13,14-dihydro-15-keto-16,16-difluoro-20-ethyl-PGE, isopropyl ester]
- Ratio of the TUNEL-positive cells (%) (Ave ± SE): 1.5 ± 0.2 %
